According to patent US20090221523A1 (priority 2005, published 2009):
Converted amounts (≈) assume the structure as drawn. “And” between values parts separate entries of the source, which are not always exact repeats. Identical values can stand only once. Like-named read-outs stand apart in the source and are kept apart here. Marks after values point to notes of the source that are not given here.

Key:
HSV-1 strain F = assay: microbe, parasite or virus in culture; assay type: cell-based, herpes simplex virus; settings: Human alphaherpesvirus 1, HFF
HSV-1 TK− strain DM2.1 = assay: microbe, parasite or virus in culture; assay type: cell-based, herpes simplex virus; settings: Human alphaherpesvirus 1, HFF
[1] = test system: CV strain delta crmA (TK+); assay: microbe, parasite or virus in culture; assay type: cell-based; settings: Cowpox virus, Vero, read-out: CV delta crmA EC50 (TK+)
[2] = test system: CV strain TK:GFP lacZ (TK−); assay: microbe, parasite or virus in culture; assay type: cell-based; settings: Cowpox virus, Vero, read-out: CV TK:GFP lacZ EC50 (TK−)
in vitro = settings: human
ΔcrmA (TK+) CV strain = assay: microbe, parasite or virus in culture; assay type: cell-based; settings: Cowpox virus, HFF, read-out: EC50 CV (Δcrm lacZ) TK+
[3] = test system: TK:GFP lacZ (TK−) CV strain; assay: microbe, parasite or virus in culture; assay type: cell-based; settings: Cowpox virus, HFF, read-out: EC50 CV (TK:gpf lacZ)
[4] = test system: vaccinia virus (Copenhagen Strain); assay: microbe, parasite or virus in culture; assay type: cell-based; settings: Orthopoxvirus vaccinia, HFF, read-out: Vaccinia (Copenhagen) EC50
[5] = test system: cowpox virus (Brighton strain); assay: microbe, parasite or virus in culture; assay type: cell-based; settings: HFF, read-out: Cowpox (Brighton) EC50
[6] = test system: vaccinia virus (Copenhagen Strain); assay: microbe, parasite or virus in culture; assay type: cell-based
[7] = test system: cowpox virus (Brighton strain); assay: microbe, parasite or virus in culture; assay type: cell-based; settings: HFF, read-out: CV (Brighton) EC50
HFF cells [8] = assay: cells; assay type: cell-based; settings: Homo sapiens, 72 h, read-out: IC50, 50% inhibition of cell proliferation
vaccinia IHD strain = test system: vaccinia IHD strain; parameters: species or system BALB/c mice; settings: mouse, in vivo
cowpox Brighton Strain [9] = test system: cowpox Brighton Strain; parameters: species or system BALB/c mice; settings: mouse, in vivo; for MDD, mean day of death / Mortality % / Mortality No. dead/total no.: ip
cowpox Brighton Strain [10] = test system: cowpox Brighton Strain; parameters: species or system BALB/c mice; settings: mouse, in vivo
vaccinia WR strain = test system: vaccinia WR strain; parameters: species or system BALB/c mice; settings: mouse, in vivo
vaccinia (WR strain) = test system: vaccinia (WR strain); parameters: species or system mice; Mean Lung Virus Titer: unit not given here; settings: mouse, in vivo
vaccinia (HID strain) = test system: vaccinia (HID strain); parameters: species or system mice; Mean Lung Virus Titer: unit not given here; settings: mouse, in vivo
WR strain of VV = assay: microbe, parasite or virus in culture; assay type: cell-based; settings: Orthopoxvirus vaccinia, HFF, 24 h, read-out: EC50 for inhibiting VV DNA synthesis
HSV-1 strain E377 = test system: HSV-1 strain E377; parameters: species or system BALB/c mice; settings: mouse, in vivo
VV strain WR = test system: VV strain WR; parameters: species or system BALB/c mice; settings: mouse, in vivo, ip
Epstein-Barr virus = assay: microbe, parasite or virus in culture; assay type: cell-based; settings: human gammaherpesvirus 4, read-out: EC50, inhibition of Epstein-Barr virus replication
human cytomegalovirus = assay type: cell-based
human herpesvirus 6 = assay type: cell-based; settings: betaherpesvirus without TK activity
HFF cells [11] = settings: human
[12] = mouse, in vivo
Human herpesvirus 8 = settings: Zhu, et al. 2005; cited from earlier work
[13] = test system: Cc1cn([C@H]2C[C@H](O)[C@@H](CO)O2)c(=O)[nH]c1=O; assay: purified protein, by the assay type
[14] = read-out: HSV-1 DM2.1 EC50 (TK−)
[15] = read-out: EC50 HSV-1 (DM2.1) TK−

Molecule `O=c1[nH]c(=O)n([C@@H]2O[C@H](CO)[C@@H](O)[C@@H]2F)cc1I` [FIAU, fialuridine] has an EC50 (HSV-1 strain F; read-out: HSV-1 F EC50 (TK+)) of 0.05 ± 0.03 µg/mL (≈ 0.134 µM), an EC50 (HSV-1 TK− strain DM2.1; [14]) of 3.9 ± 3.3 µg/mL (≈ 10.5 µM) and an EC50 [1] of 14 ± 7 µg/mL (≈ 37.6 µM). For the same molecule, the EC50 [2] was 19 ± 6.7 µg/mL (≈ 51.1 µM) and the CC50 (in vitro) was over 100 µg/mL.
Work on `O=c1[nH]c(=O)n([C@H]2C[C@H](O)[C@@H](CO)O2)cc1F` [FdU, 5-fluorodeoxyuridine] yielded an EC50 (HSV-1 strain F; read-out: HSV-1 F EC50 (TK+)) of 2.5 ± 1.7 µg/mL (≈ 10.2 µM), an EC50 (HSV-1 TK− strain DM2.1; [14]) of 4.5 ± 3.3 µg/mL (≈ 18.3 µM) and an EC50 [1] of 0.37 µg/mL (≈ 1.5 µM). For the same molecule, the EC50 [2] was 0.37 µg/mL (≈ 1.5 µM) and the CC50 (in vitro) was 60 ± 0.7 µg/mL (≈ 244 µM).
Molecule `O=c1[nH]c(=O)n([C@H]2C[C@H](O)[C@@H](CO)O2)cc1I` [IDU, idoxuridine] has an EC50 (HSV-1 strain F; read-out: EC50 HSV-1 (F) TK+) of 2.1 ± 0.1 µg/mL (≈ 5.93 µM), an EC50 (HSV-1 strain F; read-out: HSV-1 F EC50 (TK+)) of 2.1 ± 0.1 µg/mL (≈ 5.93 µM) and an EC50 (HSV-1 TK− strain DM2.1; [15]) of 54 ± 8.1 µg/mL (≈ 152 µM). It also gave an EC50 (HSV-1 TK− strain DM2.1; [14]) of 54 ± 8.1 µg/mL (≈ 152 µM), an EC50 [1] of 2.2 ± 0.87 µg/mL (≈ 6.21 µM) and an EC50 [2] of 16 ± 9.3 µg/mL (≈ 45.2 µM). It also gave an EC50 (ΔcrmA (TK+) CV strain) of 0.4 ± 0.18 µg/mL (≈ 1.13 µM), an EC50 [3] of 22 ± 9.3 µg/mL (≈ 62.1 µM) and a CC50 (in vitro) of over 100 µg/mL.
`O=c1[nH]c(=O)n([C@H]2C[C@H](O)[C@@]3(CO)CC23)cc1Br` (stereo partly drawn) [N-MCBrU] gave an EC50 [4] of 0.6 µg/mL (≈ 1.89 µM), an EC50 [5] of 11.5 µg/mL (≈ 36.3 µM) and a CC50 (in vitro) of over 100 µg/mL.
For `Cc1cn([C@H]2C[C@H](O)[C@]3(CO)C[C@H]23)c(=O)[nH]c1=O` [N-MCT, North-methanocarbathymidine], the EC50 [4] was 0.73 µg/mL (≈ 2.89 µM), the EC50 [5] was 0.31 µg/mL (≈ 1.23 µM) and the “VV (Copenhagen) EC50” value [6] was 0.55 ± 0.13 µg/mL. For the same molecule, the EC50 ([6]; Orthopoxvirus vaccinia, HFF, read-out: VV (Copenhagen) EC50) was 0.6 µg/mL (≈ 2.38 µM), the EC50 [7] was 1.5 ± 1.2 µg/mL (≈ 5.95 µM) and the IC50 (HFF cells [8]) was 29 ± 5.4 µg/mL (≈ 115 µM). The “Mean Day of Death” value (vaccinia IHD strain) was 8.7 days, the “Mortality Number” value (vaccinia IHD strain) was 0/15 and 3/15 and the Animals that survived (vaccinia IHD strain; 5.6 mg/kg) was 80%. The “MDD, mean day of death” value (vaccinia IHD strain; ip, 5.6 mg/kg) was 8.7 days, the Mortality % (vaccinia IHD strain; ip, 5.6 mg/kg) was 20% and the “Mortality No. dead/total no.” value (vaccinia IHD strain; ip, 5.6 mg/kg) was 3/15. For the same molecule, the Mortality % (vaccinia IHD strain; ip, 16.7 mg/kg) was 0%, the “Mortality No. dead/total no.” value (vaccinia IHD strain; ip, 16.7 mg/kg) was 0/15 and the Mortality % (vaccinia IHD strain; ip, 50 mg/kg) was 0%. For the same molecule, the “Mortality No. dead/total no.” value (vaccinia IHD strain; ip, 50 mg/kg) was 0/15, the “Mean Day of Death” value (cowpox Brighton Strain [9]) was 14.0 days and 7.5 days and 13.3 days and the “Mortality Number” value (cowpox Brighton Strain [9]) was 6/15 and 2/15 and 3/15. For the same molecule, the “MDD, mean day of death” value (cowpox Brighton Strain [9]; 5.6 mg/kg) was 14.0 days, the Mortality % (cowpox Brighton Strain [9]; 5.6 mg/kg) was 40% and the “Mortality No. dead/total no.” value (cowpox Brighton Strain [9]; 5.6 mg/kg) was 6/15. The “MDD, mean day of death” value (cowpox Brighton Strain [9]; 16.7 mg/kg) was 13.3 days, the Mortality % (cowpox Brighton Strain [9]; 16.7 mg/kg) was 20% and the “Mortality No. dead/total no.” value (cowpox Brighton Strain [9]; 16.7 mg/kg) was 3/15. The “MDD, mean day of death” value (cowpox Brighton Strain [9]; 50 mg/kg) was 7.5 days, the Mortality % (cowpox Brighton Strain [9]; 50 mg/kg) was 13% and the “Mortality No. dead/total no.” value (cowpox Brighton Strain [9]; 50 mg/kg) was 2/15. For the same molecule, the “Number of Survivors” value (cowpox Brighton Strain [10]) was 9/10 and 2/10 and 1/10, the “Number of Survivors” value (vaccinia WR strain) was 0/10 and the “MDD (mean day of death ± SD of mice that died prior to day 21)” value (vaccinia (WR strain)) was 8.3 ± 0.6 days and 11.2 ± 4.7 days. The “Mean Lung Virus Titer” value (vaccinia (WR strain)) was 7.9 ± 0.2 and 8.2 ± 0.1 and 8.3 ± 0.2, the Survivors/Total (vaccinia (WR strain)) was 7/10*** and 4/10* and 1/10 and the “MDD, mean day of death” value (vaccinia (HID strain)) was >21*** day. The “Mean Lung Virus Titer” value (vaccinia (HID strain)) was 7.1 ± 0.3 and 8.1 ± 0.1 and 8.3 ± 0.1, the Survivors/Total (vaccinia (HID strain)) was 10/10*** and the EC50 (HSV-1 strain F; read-out: EC50 HSV-1 (F) TK+) was 0.07 ± 0.02 µg/mL (≈ 0.277 µM). It also gave an EC50 (HSV-1 TK− strain DM2.1; [15]) of 6.3 ± 3.9 µg/mL (≈ 25 µM), an EC50 (ΔcrmA (TK+) CV strain) of 2 ± 2 µg/mL (≈ 7.93 µM) and an EC50 [3] of 28 ± 2.3 µg/mL (≈ 111 µM). The EC50 (WR strain of VV) was 1 µg/mL (≈ 3.96 µM), the “MDD, mean day of death” value (HSV-1 strain E377) was 20 days and the Mortality % (HSV-1 strain E377) was 0% and 7%. For the same molecule, the “Mortality No. dead/total no.” value (HSV-1 strain E377) was 0/15 and 1/15, the “MDD, mean day of death” value (VV strain WR; 5.6 mg/kg) was 8.2 days and the Mortality % (VV strain WR; 5.6 mg/kg) was 80%. The “Mortality No. dead/total no.” value (VV strain WR; 5.6 mg/kg) was 12/15, the “MDD, mean day of death” value (VV strain WR; 16.7 mg/kg) was 7.5 days and the Mortality % (VV strain WR; 16.7 mg/kg) was 13%. The “Mortality No. dead/total no.” value (VV strain WR; 16.7 mg/kg) was 2/15, the Mortality % (VV strain WR; 50 mg/kg) was 0% and the “Mortality No. dead/total no.” value (VV strain WR; 50 mg/kg) was 0/15. The EC50 (Epstein-Barr virus) was 0.45 µg/mL (≈ 1.78 µM), the “Activity against human cytomegalovirus” value (human cytomegalovirus) was “inactive” and the “Activity against human herpesvirus 6” value (human herpesvirus 6) was “inactive”. The CC50 (HFF cells [11]) was over 100 ± 0 µg/mL, the Tolerability in mice [12] was “well tolerated” and the “Sensitivity of human herpesvirus 8 to the drug” value (Human herpesvirus 8) was “sensitive”. It also gave a CC50 (in vitro) of over 100 µg/mL.
For `O=c1[nH]c(=O)n([C@H]2C[C@H](O)[C@@H](CO)O2)cc1C(F)(F)F` [TFT, trifluridine], the EC50 (HSV-1 strain F; read-out: HSV-1 F EC50 (TK+)) was 1 ± 0.2 µg/mL (≈ 3.38 µM), the EC50 (HSV-1 TK− strain DM2.1; [14]) was 1.1 ± 0.3 µg/mL (≈ 3.71 µM) and the EC50 [1] was 0.42 ± 0.33 µg/mL (≈ 1.42 µM). The EC50 [2] was 0.72 ± 0.28 µg/mL (≈ 2.43 µM) and the CC50 (in vitro) was over 100 µg/mL.
Molecule “purified VV TK (Vaccinia virus Copenhagen)” has a Km [13] of 49 ± 7.6 µM and a Vmax [13] of 289 µM/min/mg.
